# Source: PubChem BioAssay (NCI)
#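 Method: 48-hour compound exposure of cells in 96-well plates, five concentrations, linear interpolation of endpoints. The concentration for 50% growth inhibition is given as GI50. TGI: concentration producing complete growth inhibition.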
# Key:
# Test in all cases: DTP human tumour cell line panel, 48 h
# ACHN renal = system: ACHN renal
# CCRF-CEM leukemia = system: CCRF-CEM leukemia
# EKVX NSCLC = system: EKVX NSCLC
# HCT-116 colon = system: HCT-116 colon
# MDA-MB-231 breast = system: MDA-MB-231 breast
# OVCAR-4 ovarian = system: OVCAR-4 ovarian
# RXF 393 renal = system: RXF 393 renal
# SF-295 CNS = system: SF-295 CNS
# SF-539 CNS = system: SF-539 CNS
# SK-MEL-5 melanoma = system: SK-MEL-5 melanoma
Compound,GI50 (ACHN renal) [µM],TGI (ACHN renal) [µM],GI50 (CCRF-CEM leukemia) [µM],TGI (CCRF-CEM leukemia) [µM],GI50 (EKVX NSCLC) [µM],TGI (EKVX NSCLC) [µM],GI50 (HCT-116 colon) [µM],TGI (HCT-116 colon) [µM],GI50 (MDA-MB-231 breast) [µM],TGI (MDA-MB-231 breast) [µM],GI50 (OVCAR-4 ovarian) [µM],TGI (OVCAR-4 ovarian) [µM],GI50 (RXF 393 renal) [µM],TGI (RXF 393 renal) [µM],GI50 (SF-295 CNS) [µM],TGI (SF-295 CNS) [µM],GI50 (SF-539 CNS) [µM],TGI (SF-539 CNS) [µM],GI50 (SK-MEL-5 melanoma) [µM],TGI (SK-MEL-5 melanoma) [µM]
CC#CC(=O)N1CCC[C@H]1c1nc(-c2ccc(C(=O)Nc3ccccn3)cc2)c2c(N)nccn12,23.8,> 100,> 82.1,> 100,35,> 100,> 76,> 100,28.1,> 100,58,> 100,61.7,> 100,> 86.1,> 100,> 100,> 100,40.5,> 100
NC(CSC(c1ccccc1)(c1ccccc1)c1ccc2ccccc2c1)C(=O)O (stereo unspecified),0.911,30.8,0.0372,> 39.4,0.136,26.3,0.0312,0.958,0.0695,5,13.1,33.2,0.0572,21.5,0.0246,2.64,0.0384,3.07,0.0438,11.5
FC(F)(F)c1ccc(-c2cnc(Br)nc2NC2CCCCCC2)cc1,> 100,> 100,84.7,> 100,–,–,14.4,> 100,12.3,> 100,26,> 100,24.9,> 100,69.6,> 100,> 100,> 100,29.1,> 100
C[C@H]1[C@@H](OCC(CO[C@H]2O[C@@H]3O[C@@]4(C)CC[C@H]5[C@H](C)CC[C@@H]([C@H]2C)[C@@]35OO4)=NOCC(=O)O)OC2O[C@@]3(C)CC[C@H]4[C@H](C)CC[C@@H]1[C@@]24OO3 (stereo partly specified),0.188,14.5,< 0.01,12.5,0.0982,22.2,< 0.01,13.7,0.12,2.41,0.0565,18.2,0.0821,15.8,0.1,17.3,0.442,20.9,0.0288,14.9
C=C(C)[C@H]1CC/C(C)=C/CCC(C)C(=O)CC/C(CO)=C\[C@@H]1O (stereo partly specified),> 100,> 100,44.6,> 100,55.5,> 100,97.4,> 100,> 100,> 100,20.4,> 100,> 100,> 100,70,> 100,> 100,> 100,40.7,> 100
Cn1cnc([N+](=O)[O-])c1Sc1ncnc2c1ncn2C1OC(CO)C(O)C1O (stereo unspecified),25.7,> 100,21.7,> 100,86.2,> 100,4.62,> 100,9.62,> 100,45.3,> 100,24.6,> 100,2.95,> 100,4.11,> 100,11.4,> 100
CCNCCNc1cc(-c2ccc(F)cc2)c(C#N)c2nc3ccccc3n12,1.87,3.51,2.77,6.52,13.6,26.7,2.24,4.34,2.73,7.69,3.4,14.5,1.71,3.44,1.8,3.79,1.7,3.24,1.74,3.18
COc1ccc2c(c1)OC13Oc4cc(OC)ccc4C=C1CCCC3=C2,> 100,> 100,5.88,> 100,> 100,> 100,–,–,> 100,> 100,> 100,> 100,> 100,> 100,> 100,> 100,> 100,> 100,13.6,> 100
CC(C)C(N)(C(=O)O)c1ccccc1 (stereo unspecified),–,> 100,–,> 100,–,> 100,–,> 100,–,> 100,–,> 100,–,> 100,–,> 100,–,–,–,> 100
COc1ccc(NC(=O)c2cc(OC)c(OC)c(OC)c2)cc1O,13.6,> 100,4.13,> 100,> 100,> 100,4.21,> 100,6.79,> 100,15.3,> 100,3.75,83.9,2.78,> 100,2.75,> 100,1.43,48.6
Oc1c(CN2CCCC2)cc(COCc2ccccc2)c2cccnc12,0.358,10.2,1.43,15.4,2.01,15.6,2.65,11,4.98,20.1,0.903,13.6,2.11,8.29,2.86,13.7,2.89,10.1,1.12,4.76
C#Cc1ccc(NC(=O)c2ccc(/C=C/C(=O)c3nccn3C)cc2)cc1,0.445,0.839,0.486,1.59,0.565,1.45,0.326,0.721,0.761,2.71,0.727,25,0.408,0.796,0.537,1.25,0.42,0.801,0.49,1.01
C[C@@H]1CC[C@@]2(OC1)O[C@H]1C[C@H]3[C@@H]4CC=C5C[C@@H](O[C@@H]6O[C@H](CO)[C@@H](O[C@@H]7O[C@@H](CO)[C@H](O)[C@H]7O)[C@H](O)[C@H]6O[C@@H]6O[C@@H](C)[C@H](O)[C@@H](O)[C@H]6O)CC[C@]5(C)[C@H]4CC[C@]3(C)[C@H]1[C@@H]2C,–,2.12,1.1,2.6,1.62,3.04,–,2.09,0.514,1.77,1.36,2.71,0.388,1.58,1.71,3.11,0.758,2.02,1.6,2.95
COc1ccc(/C=C(\C#N)c2cc3ccccc3n2C)cc1,0.654,> 100,0.338,> 100,0.765,> 100,0.426,> 100,0.699,> 100,1.09,> 100,0.244,0.834,0.355,> 28.2,0.305,1.22,0.504,16.9
O=C(/C=C/c1ccco1)Nc1ncc(Cc2ccc(F)cc2)s1,0.0749,> 100,0.0614,> 100,0.303,> 100,0.0408,> 100,0.199,> 45.4,1.22,> 100,0.122,0.593,0.0709,> 100,0.0686,0.379,0.0476,–
O=Nc1c(O)ccc2ccccc12,2.16,7.52,3.16,11.4,–,–,2.25,5.87,2.03,10.2,1.29,2.57,6.54,19.5,11.7,24.4,2.59,6.29,1.46,2.85
c1ccc(-c2nc(N3CCNCC3)c3nc(-c4ccccc4)oc3n2)cc1,1.71,3.09,1.38,3.83,1.78,3.39,1.25,2.9,1.67,3.2,1.9,3.63,1.83,3.48,1.86,3.38,1.72,3.13,1.8,3.23
COc1ccc(/C=C2\N=C3SC=C(N)N3C2=O)cc1,0.711,2.43,0.4,4.33,–,–,1.11,2.61,1.05,3.63,0.485,11,0.303,1.58,0.642,14.2,1.5,4.07,0.833,2.64
COc1ccc2c3c(c(OCCCN(C)C)nc2c1)-c1ccc(Cl)cc1C3=O,1.26,4.26,7.89,66,7.17,22.7,1.29,3.52,4.26,23.7,2.83,17.2,7.24,20.1,10.6,23.8,8.2,21.3,14.6,28.4
Cn1ccnc1C(=O)/C=C/c1ccc(C(=O)Nc2nc3ccccc3[nH]2)cc1,11,> 25,1.28,> 25,7.73,> 25,1.5,> 25,3.05,13.1,1.12,> 25,4.51,> 25,> 25,> 25,2.7,18,18.4,> 25
CC/C=C\CCC/C=C1/C(=O)C=C[C@@H]1C/C=C\CCCC(=O)O,1.89,3.61,2.84,16.2,4.02,14,2.53,5.79,5.55,22.5,6.93,22.1,3.68,10.3,2.87,8.13,3.52,12.4,1.72,3.31
Cn1c(O)c(C(=O)Nc2ccc([N+](=O)[O-])cc2)c(=O)n(C)c1=S,–,> 27.3,–,> 100,–,> 23.2,–,5.63,–,6.12,–,13.5,–,2.8,–,4.86,–,4.2,–,5.84
COc1cc(C2C(C#N)=C(N)OC3=C2C(=O)c2ccccc2C3=O)cc(OC)c1OC (stereo unspecified),0.571,16.6,–,–,12.6,34,0.43,30.6,3.53,41.7,3.45,12.5,0.517,16.3,8.29,24.8,0.344,4.56,0.439,1.81
O=C(/C=C\c1ccnc2ccccc12)c1ccc([N+](=O)[O-])cc1,14.6,> 100,3.41,> 48.1,–,–,1.59,3.15,8.63,38.7,3.71,> 100,12,> 66,23.4,> 100,6.82,24.9,3.63,22.3
CC(C)(C)CC(C)(C)c1ccc(OCCOCCSC(=N)N)cc1,1.72,3.22,2.46,6.02,–,–,1.5,2.83,1.34,2.94,1.54,3.1,1.78,3.59,1.72,3.27,1.81,3.31,–,–
COc1ccccc1-n1c(SCc2cc(OC)c(OC)c(OC)c2)nc2ccc(Cl)cc2c1=O,7.07,> 100,3.07,> 100,–,–,2.53,> 100,4.24,> 100,7.35,> 100,3.78,> 100,–,–,3.41,19.6,1.47,> 100
